According to patent publication US11179383B2 (Gilead Sciences, Inc., priority 2018, dated 2021):

Target: T1, α4β7 integrin (Homo sapiens, UniProt P13612+P26010)
T1 construct: monitoring the capture of α4β7 integrin expressing cells on a recombinant MadCAM-1 extracellular domain-coated plate; endogenous in cells; host or cells: RPMI8866 cells
T1 sequence (P13612 34-1032): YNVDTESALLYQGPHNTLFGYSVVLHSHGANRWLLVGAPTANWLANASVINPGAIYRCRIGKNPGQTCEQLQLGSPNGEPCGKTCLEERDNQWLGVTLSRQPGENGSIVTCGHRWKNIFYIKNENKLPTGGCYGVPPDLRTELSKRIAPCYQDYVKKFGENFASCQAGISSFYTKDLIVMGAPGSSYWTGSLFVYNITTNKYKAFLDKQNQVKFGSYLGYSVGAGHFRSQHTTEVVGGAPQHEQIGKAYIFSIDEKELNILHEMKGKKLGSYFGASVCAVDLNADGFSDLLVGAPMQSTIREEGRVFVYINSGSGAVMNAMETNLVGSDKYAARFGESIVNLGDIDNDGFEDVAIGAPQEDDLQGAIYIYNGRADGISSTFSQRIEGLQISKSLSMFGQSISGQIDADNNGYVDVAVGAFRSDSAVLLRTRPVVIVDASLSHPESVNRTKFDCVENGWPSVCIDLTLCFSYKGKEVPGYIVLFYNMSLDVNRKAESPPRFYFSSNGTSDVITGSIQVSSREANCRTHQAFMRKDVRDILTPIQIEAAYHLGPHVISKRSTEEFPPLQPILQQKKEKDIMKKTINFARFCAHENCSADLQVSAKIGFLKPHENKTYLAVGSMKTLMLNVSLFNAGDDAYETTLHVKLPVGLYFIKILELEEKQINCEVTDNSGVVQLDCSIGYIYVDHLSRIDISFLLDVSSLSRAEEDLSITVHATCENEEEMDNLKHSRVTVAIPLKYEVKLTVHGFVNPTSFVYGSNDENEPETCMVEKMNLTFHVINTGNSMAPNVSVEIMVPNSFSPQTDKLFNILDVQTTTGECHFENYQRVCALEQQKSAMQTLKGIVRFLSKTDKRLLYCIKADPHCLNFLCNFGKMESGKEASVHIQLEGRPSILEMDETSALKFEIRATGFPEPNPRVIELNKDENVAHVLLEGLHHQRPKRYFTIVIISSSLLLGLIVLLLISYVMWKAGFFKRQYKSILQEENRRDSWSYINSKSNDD
T1 sequence (P26010 20-798): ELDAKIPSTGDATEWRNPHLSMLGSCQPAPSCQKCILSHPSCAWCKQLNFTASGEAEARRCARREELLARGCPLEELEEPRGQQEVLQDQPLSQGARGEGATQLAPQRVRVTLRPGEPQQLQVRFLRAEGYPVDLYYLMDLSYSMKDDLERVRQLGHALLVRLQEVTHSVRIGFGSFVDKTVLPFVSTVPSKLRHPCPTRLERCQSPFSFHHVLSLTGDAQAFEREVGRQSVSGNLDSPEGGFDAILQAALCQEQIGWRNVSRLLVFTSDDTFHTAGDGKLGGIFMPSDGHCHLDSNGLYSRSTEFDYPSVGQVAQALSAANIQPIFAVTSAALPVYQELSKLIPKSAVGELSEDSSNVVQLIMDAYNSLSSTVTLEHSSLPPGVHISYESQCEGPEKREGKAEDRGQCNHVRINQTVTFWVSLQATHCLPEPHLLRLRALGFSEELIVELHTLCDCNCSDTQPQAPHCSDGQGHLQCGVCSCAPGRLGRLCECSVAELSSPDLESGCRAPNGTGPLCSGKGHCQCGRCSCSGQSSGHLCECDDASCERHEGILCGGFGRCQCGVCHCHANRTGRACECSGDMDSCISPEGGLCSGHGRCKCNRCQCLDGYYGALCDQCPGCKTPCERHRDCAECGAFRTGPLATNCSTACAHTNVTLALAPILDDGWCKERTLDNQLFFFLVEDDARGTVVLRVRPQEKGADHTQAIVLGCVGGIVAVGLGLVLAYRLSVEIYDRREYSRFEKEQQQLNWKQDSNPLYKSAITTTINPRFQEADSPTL
Assay: α4β7 Integrin Cell Capture Assay
Format: cell-based
Settings: capture of α4β7 integrin expressing RPMI8866 cells on recombinant MadCAM-1 extracellular domain-coated plate; DMEM+0.5% FBS+0.5 mM MnCl2; read-out: EC50 α4β7
Description: α4β7 Integrin Cell Capture Assay
The potency of inhibitors in preventing α4β7 integrin interaction with MadCAM-1 was measured by monitoring the capture of α4β7 integrin expressing cells on a recombinant MadCAM-1 extracellular domain-coated plate.
384-Well plates (Corning 3702) were coated with MadCAM-1 extracellular domain by dispensing 20 μL of MAdCAM-1 at 1.0 μg/mL per well and incubating overnight at 4° C. The plates were then washed with PBS and blocked with 3% BSA for 2 hours before being washed again.
RPMI8866 cells were spun down and re-suspended in assay medium (DMEM+0.5% FBS+0.5 mM MnCl2) at a density of 0.5×10^6 cells/mL. The cells were then dispensed (60 μL/well) to a 384-well plate (Greiner 781280) that was previously spotted with 60 nL of test compound per well. The plates were incubated at 37° C. for 1 hour. 50 μL of cells were transferred to the blocked, MadCAM-1-coated plates and incubated for 30 minutes at 37° C. 10 μL of 12% glutaraldehyde containing Hoechst 33342 (0.06 mg/mL) was added to the cells (2% glutaraldehyde and 0.01 mg/mL final concentrations). The plates were incubated for 90 minutes at room temperature. The plates were then washed 3 times with 70 μL of PBS per well and imaged on a Cellomics ArrayScan instrument. The cells that were bound to the plate were counted and plotted against the compound concentration to determine the EC50 of the test compounds.

How did the EC50 turn out when COc1cc(F)c(F)cc1-c1ccc(C[C@H](NC(=O)c2c(Cl)cccc2Cl)C(=O)O)c2nccc(Cl)c12 (single isomer, unassigned) [Example 95] was run?
Its EC50 is 15.2 nM.

How did the EC50 turn out when COc1cc(F)c(F)cc1-c1ccc(C[C@H](NC(=O)c2c(Cl)cccc2Cl)C(=O)O)c2nccc(Cl)c12 (single isomer, unassigned) [Example 96] was run?
Its EC50 is 572 nM.

For COc1cc(F)c(F)cc1-c1ccc(C[C@H](NC(=O)c2c(Cl)cccc2Cl)C(=O)O)c2nccc(C)c12 (single isomer, unassigned) [Example 98], which EC50 is on record?
The EC50 was 469 nM.

How did the EC50 turn out when COc1cc(F)c(F)cc1-c1ccc(C[C@H](NC(=O)c2c(Cl)cccc2Cl)C(=O)O)c2nccc(C)c12 (single isomer, unassigned) [Example 99] was run?
The EC50 was 50.4 nM.

For Cc1c(-c2ccc(C[C@H](NC(=O)c3c(Cl)cccc3Cl)C(=O)O)c3ccccc23)c(=O)n(C)c(=O)n1C (single isomer, unassigned) [Example 109], which EC50 is on record?
The EC50 was 2.1 nM.

How did the EC50 turn out when Cc1c(-c2ccc(C[C@H](NC(=O)c3c(Cl)cccc3Cl)C(=O)O)c3ccccc23)c(=O)n(C)c(=O)n1C (single isomer, unassigned) [Example 110] was run?
The EC50 was 14.2 nM.

Which EC50 does the source give for Cc1c(-c2ccc(C[C@H](NC(=O)c3c(Cl)cccc3Cl)C(=O)O)c3ccccc23)c(=O)n(C)c2ccccc12 (single isomer, unassigned) [Example 117] here?
Its EC50 is 82 nM.

Which EC50 does the source give for Cc1c(-c2ccc(C[C@H](NC(=O)c3c(Cl)cccc3Cl)C(=O)O)c3ccccc23)c(=O)n(C)c2ccccc12 (single isomer, unassigned) [Example 118] here?
Its EC50 is 2.5 nM.

For Cc1c(-c2ccc(C[C@H](NC(=O)c3c(F)cccc3F)C(=O)O)c3ccccc23)c(=O)n(C)c2ccccc12 (single isomer, unassigned) [Example 119], which EC50 is on record?
The EC50 was 82.9 nM.

How did the EC50 turn out when Cc1c(-c2ccc(C[C@H](NC(=O)c3c(F)cccc3F)C(=O)O)c3ccccc23)c(=O)n(C)c2ccccc12 (single isomer, unassigned) [Example 120] was run?
The EC50 was 1.5 nM.

With COc1cc(C)n(C)c(=O)c1-c1ccc(C[C@H](NC(=O)c2c(F)cc(N3CCOC[C@@H]3C(F)(F)F)cc2F)C(=O)O)c2ccccc12 (single isomer, unassigned) [Example 124] as the compound, how does the EC50 read?
The EC50 was 0.2 nM.

How did the EC50 turn out when COc1cc(C)n(C)c(=O)c1-c1ccc(C[C@H](NC(=O)c2c(F)cc(N3CCOC[C@@H]3C(F)(F)F)cc2F)C(=O)O)c2ccccc12 (single isomer, unassigned) [Example 125] was run?
Its EC50 is 0.5 nM.

Which EC50 does the source give for Cc1cc(C)n(C)c(=O)c1-c1ccc(C[C@H](NC(=O)c2c(F)cc(N3CCOC[C@@H]3C(F)(F)F)cc2F)C(=O)O)c2ccccc12 (single isomer, unassigned) [Example 126] here?
Its EC50 is 6.4 nM.

Cc1cc(C)n(C)c(=O)c1-c1ccc(C[C@H](NC(=O)c2c(F)cc(N3CCOC[C@@H]3C(F)(F)F)cc2F)C(=O)O)c2ccccc12 (single isomer, unassigned) [Example 127] was tested. Which EC50 did it give?
The EC50 was 0.4 nM.

Which EC50 does the source give for Cc1cc(C(F)(F)F)c(-c2ccc(C[C@H](NC(=O)c3c(F)cc(N4CCOC[C@@H]4C(F)(F)F)cc3F)C(=O)O)c3ccccc23)c(=O)n1C (single isomer, unassigned) [Example 128] here?
Its EC50 is 1.7 nM.

Which EC50 does the source give for Cc1cc(C(F)(F)F)c(-c2ccc(C[C@H](NC(=O)c3c(F)cc(N4CCOC[C@@H]4C(F)(F)F)cc3F)C(=O)O)c3ccccc23)c(=O)n1C (single isomer, unassigned) [Example 129] here?
Its EC50 is 0.1 nM.

With CC[C@@H](Nc1cc(F)c(C(=O)N[C@@H](Cc2ccc(-c3c(OC)cc(C)n(C)c3=O)c3ccccc23)C(=O)O)c(F)c1)C(F)(F)F (single isomer, unassigned) [Example 130] as the compound, how does the EC50 read?
The EC50 was 0.6 nM.

Which EC50 does the source give for CC[C@@H](Nc1cc(F)c(C(=O)N[C@@H](Cc2ccc(-c3c(OC)cc(C)n(C)c3=O)c3ccccc23)C(=O)O)c(F)c1)C(F)(F)F (single isomer, unassigned) [Example 131] here?
The EC50 was 0.5 nM.

With CC[C@@H](Nc1cc(F)c(C(=O)N[C@@H](Cc2ccc(-c3c(C)cc(C)n(C)c3=O)c3ccccc23)C(=O)O)c(F)c1)C(F)(F)F (single isomer, unassigned) [Example 132] as the compound, how does the EC50 read?
Its EC50 is 13.7 nM.

With CC[C@@H](Nc1cc(F)c(C(=O)N[C@@H](Cc2ccc(-c3c(C)cc(C)n(C)c3=O)c3ccccc23)C(=O)O)c(F)c1)C(F)(F)F (single isomer, unassigned) [Example 133] as the compound, how does the EC50 read?
Its EC50 is 0.5 nM.

For CC[C@@H](Nc1cc(F)c(C(=O)N[C@@H](Cc2ccc(-c3c(C(F)(F)F)cc(C)n(C)c3=O)c3ccccc23)C(=O)O)c(F)c1)C(F)(F)F (single isomer, unassigned) [Example 134], which EC50 is on record?
The EC50 was 8.3 nM.

CC[C@@H](Nc1cc(F)c(C(=O)N[C@@H](Cc2ccc(-c3c(C(F)(F)F)cc(C)n(C)c3=O)c3ccccc23)C(=O)O)c(F)c1)C(F)(F)F (single isomer, unassigned) [Example 135] was tested. Which EC50 did it give?
The EC50 was 1 nM.

Which EC50 does the source give for CC[C@@H](Nc1cc(F)c(C(=O)N[C@@H](Cc2ccc(-c3c(OC)cnn(C)c3=O)c3ccccc23)C(=O)O)c(F)c1)C(F)(F)F (single isomer, unassigned) [Example 136] here?
Its EC50 is 0.8 nM.

How did the EC50 turn out when CC[C@@H](Nc1cc(F)c(C(=O)N[C@@H](Cc2ccc(-c3c(OC)cnn(C)c3=O)c3ccccc23)C(=O)O)c(F)c1)C(F)(F)F (single isomer, unassigned) [Example 137] was run?
Its EC50 is 0.9 nM.

CCOCc1cc(OC)c(-c2ccc(C[C@@H](NC(=O)c3c(F)cc(NS(=O)(=O)c4ccc(-c5ccnc(F)c5)cc4)cc3F)C(=O)O)c3c2cnn3C)c(OC)c1 (single isomer, unassigned) [Example 145] was tested. Which EC50 did it give?
The EC50 was 34.9 nM.

With CCOCc1cc(OC)c(-c2ccc(C[C@H](NC(=O)c3c(F)cc(NS(=O)(=O)c4ccc(-c5ccnc(F)c5)cc4)cc3F)C(=O)O)c3cnn(C)c23)c(OC)c1 (single isomer, unassigned) [Example 147] as the compound, how does the EC50 read?
Its EC50 is 0.4 nM.

CCOCc1cc(OC)c(-c2ccc(C[C@@H](NC(=O)c3c(F)cc(NS(=O)(=O)c4ccc(-c5ccnc(F)c5)cc4)cc3F)C(=O)O)c3cnn(C)c23)c(OC)c1 (single isomer, unassigned) [Example 148] was tested. Which EC50 did it give?
The EC50 was 3.6 nM.

For CCOCc1cc(OC)c(-c2ccc(C[C@H](NC(=O)c3c(F)cc(NS(=O)(=O)c4ccc(-c5ccnc(F)c5)cc4)cc3F)C(=O)O)c3ccncc23)c(OC)c1 (single isomer, unassigned) [Example 161], which EC50 is on record?
The EC50 was 0.5 nM.

CCOCc1cc(OC)c(-c2ccc(C[C@@H](NC(=O)c3c(F)cc(NS(=O)(=O)c4ccc(-c5ccnc(F)c5)cc4)cc3F)C(=O)O)c3ccncc23)c(OC)c1 (single isomer, unassigned) [Example 162] was tested. Which EC50 did it give?
Its EC50 is 1.7 nM.
